Article PMC11940343, “In Vitro and In Vivo Evaluation of the De Novo Designed Antimicrobial Peptide P6.2 Against a KPC-Producing P. aeruginosa Clinical Isolate” (Biomolecules, 2025)
No end group written: not given here.

Tests used:
P. aeruginosa M13513 [1] = test: Inhibition of biofilm formation (crystal violet); type: cell-based, Pseudomonas aeruginosa; conditions: sub-MIC concentrations (1/8 to 1/2 of the MIC), 24 h
Procedure: The assessment of biofilm inhibition was carried out using 96-well flat-bottom polystyrene plates. Antimicrobial agents were diluted in Mueller–Hinton broth through a two-fold serial dilution and subsequently inoculated with a fresh bacterial culture to obtain a final concentration of 5 × 10^5 CFU/mL, with a total well volume of 100 µL. The plates were then incubated at 37 °C for 24 h. Bacteria cultured without the peptide served as the control. To evaluate biofilm formation following peptide exposure, the supernatant was carefully removed, and the wells were washed twice with 100 µL of saline solution to eliminate any non-adherent cells. The remaining biofilm was fixed by adding 100 µL of methanol for 15 min, followed by staining with 100 µL of 1% (v/v) crystal violet ( Sigma-Aldrich, Massachusetts, USA) for 5 min. After staining, the excess dye was discarded, and the wells were rinsed twice with 200 µL of distilled water before allowing the plate to dry at 37 °C for 30 min. Finally, 100 µL of 33% acetic acid was added to each well, and the samples were homogenized by gentle agitation. The absorbance was then measured at 595 nm using a microplate reader (RT2100, Rayto Life and Analytical Sciences Co., Ltd., Shenzhen, China).

P. aeruginosa M13513 [2] = test: Bactericidal effect by killing kinetics (time-kill curve); type: cell-based, Pseudomonas aeruginosa; conditions: killing kinetics at 64 µg/mL of P6.2
Procedure: The bactericidal activity was determined according to the CLSI recommendations. In short, the bactericidal activity of the antimicrobial agents on the microorganisms was evaluated using a time–kill curve. The Minimal Bactericidal Concentration (MBC) is the lowest drug concentration required to eliminate 99.9% of viable organisms (a 3-log reduction in CFU/mL compared to the control) after a set incubation period under defined conditions. This is the most common method for estimating bactericidal activity.
The killing kinetics of an antimicrobial agent allow us to observe how the agent exerts its activity as a function of time, determining viable cells by counting colony-forming units at different time points. Normally, for commonly used antibiotics, this measurement is carried out over a 24-h period, since they reach their maximum activity during this period. However, for AMPs, these times are much shorter; in fact, these antimicrobials exert their maximum activity in just hours or minutes. For this reason, killing kinetics at MIC was carried out by measuring viable bacteria at short intervals over a period of three hours.

P. aeruginosa M13513 [3] = tested on: P. aeruginosa M13513
Procedure: To analyze the stability of the molecule, the peptide was exposed to different temperatures for varying durations. The conditions tested involved incubation at 37 °C for 24 h, at 60 °C for 2 h, and at 100 °C for 15 min. Each condition was set up in a microtube with the peptide dissolved in sterile deionized water. As a control, the peptide was dissolved immediately before testing without temperature incubation. Afterward, the broth microdilution assay was conducted to assess its antimicrobial effectiveness. Additionally, the stability of the peptide in serum was examined. Three microtubes were prepared, each containing sterile deionized water with FCBS (fetal calf bovine serum) 25% (v/v) and the antimicrobial peptide. Two of these samples were incubated at 37 °C for 24 h or 2 h, while the third sample was prepared just before testing without any temperature incubation. As controls, serum alone and peptide without serum were used. The antimicrobial activity was subsequently evaluated through the broth microdilution assay. In order to assess the stability of the AMP, P6.2 was incubated at different temperature conditions or with FBS (fetal bovine serum) for different time periods. The temperature exposures were overnight (ON) at 37 °C, 120 min at 60 °C, and 15 min at 100 °C. […]

P. aeruginosa M13513 [4] = test: Peptide stability at different temperatures, read out by broth microdilution MIC; type: physicochemical, Pseudomonas aeruginosa; parameters: unit not given beside the values; conditions: peptide in sterile deionized water, then broth microdilution vs P. aeruginosa M13513
Procedure: To analyze the stability of the molecule, the peptide was exposed to different temperatures for varying durations. The conditions tested involved incubation at 37 °C for 24 h, at 60 °C for 2 h, and at 100 °C for 15 min. Each condition was set up in a microtube with the peptide dissolved in sterile deionized water. As a control, the peptide was dissolved immediately before testing without temperature incubation. Afterward, the broth microdilution assay was conducted to assess its antimicrobial effectiveness. Additionally, the stability of the peptide in serum was examined. Three microtubes were prepared, each containing sterile deionized water with FCBS (fetal calf bovine serum) 25% (v/v) and the antimicrobial peptide. Two of these samples were incubated at 37 °C for 24 h or 2 h, while the third sample was prepared just before testing without any temperature incubation. As controls, serum alone and peptide without serum were used. The antimicrobial activity was subsequently evaluated through the broth microdilution assay. In order to assess the stability of the AMP, P6.2 was incubated at different temperature conditions or with FBS (fetal bovine serum) for different time periods. The temperature exposures were overnight (ON) at 37 °C, 120 min at 60 °C, and 15 min at 100 °C. P6.2 was incubated with 25% FBS at 37 °C for 2 and 24 h before the experiment or directly at the moment of the experiment. Then, a microdilution assay was performed to test the antimicrobial activity.

P. aeruginosa M13513 [5] = test: Synergy by time-kill kinetic assay; type: cell-based, Pseudomonas aeruginosa; conditions: P6.2 and meropenem both at 0.5× MIC, synergy = ≥2-log10 decrease in CFU/mL vs most active constituent after 24 h
Procedure: The possible synergistic interaction between P6.2 and meropenem was assessed through time–kill kinetic assays. These experiments were conducted in 50 mL tubes with a final volume of 10 mL. A log-phase culture of P. aeruginosa M13513 was obtained and subsequently diluted in CAMHB to achieve a final bacterial concentration of 5 × 10^6 CFU/mL. Both P6.2 and meropenem were tested individually and in combination at 0.5× MIC (minimum inhibitory concentration). Untreated bacterial cultures served as controls.
The samples were incubated at 37 °C with constant shaking for 24 h. Aliquots were collected at 0, 1, 2, 3, 4, 8, and 20 h, serially diluted in saline, and plated in triplicate on LB agar using three drops of 50 µL per dilution. The plates were incubated at 37 °C for 24 h to determine colony-forming unit (CFU) counts.
The results were plotted as Log CFU/mL versus time (h). […] A bactericidal effect was determined when the initial inoculum was reduced by three or more logarithmic units.

[6] = affinity towards eukaryotic and prokaryotic membranes; cited from earlier work
Text: (§1) Peptide 6.2 (P6.2) is a de novo designed antimicrobial peptide, with an amphipathic alfa helical structure.

mice erythrocytes = conditions: cited from earlier work
Text: as §1

GLLRKWGKKWKEFLRRVWK-NH2 [Peptide P6.2]
biofilm inhibitory activity (P. aeruginosa M13513 [1]): did not show anti-biofilm activity | time to 99.9% reduction in viable bacteria (bactericidal effect) (P. aeruginosa M13513 [2]): less than 45 min | reduction of antimicrobial activity after serum incubation (P. aeruginosa M13513 [3]): two-fold dilution | MIC after temperature exposure (P. aeruginosa M13513 [4]; 37 °C ON (24 h)): 32/64 | MIC after temperature exposure (P. aeruginosa M13513 [4]; 60 °C 120 min): 32/64 | MIC after temperature exposure (P. aeruginosa M13513 [4]; 100 °C 15 min): 32/64 | interaction with meropenem (P. aeruginosa M13513 [5]): synergism | membrane selectivity [6]: selectivity for bacterial membranes | erythrocytes lysis (mice erythrocytes): less than 10%
